Results on one compound are retold here after ChEMBL document CHEMBL5725503, “Heterocyclic compounds and methods for their use” (2017).

In this assay the target is T1, Type-2 angiotensin II receptor (Homo sapiens, UniProt P50052).
T1 sequence (P50052 whole entry): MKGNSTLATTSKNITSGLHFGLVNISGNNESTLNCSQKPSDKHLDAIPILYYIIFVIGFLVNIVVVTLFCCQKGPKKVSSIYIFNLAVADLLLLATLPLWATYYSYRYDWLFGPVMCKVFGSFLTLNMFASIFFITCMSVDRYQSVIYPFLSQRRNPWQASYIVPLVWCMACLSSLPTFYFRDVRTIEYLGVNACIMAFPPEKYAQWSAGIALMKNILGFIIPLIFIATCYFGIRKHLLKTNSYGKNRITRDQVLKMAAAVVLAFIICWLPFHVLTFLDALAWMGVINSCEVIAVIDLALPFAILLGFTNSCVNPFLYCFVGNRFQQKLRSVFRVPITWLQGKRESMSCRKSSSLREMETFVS
The experiment in a line: AT2 Receptor Binding Assay: 120 μL membrane ([…]) was incubated with 15 μL of [125I]-CGP42112A and 15 μL of compound at RT for 1.5 hrs.The binding reaction was stopped by rapid filtration through Unifilter GF/C plates (presoaked in 0.3% (v:v) BSA).Plate was washed three times with ice cold wash buffer.The filtration plates were dried at 37° C. overnight.50 μL of scintillation cocktail was added to each well.Radioactivity was determined using MicroBetaTriltuunicroplate scintillation counter.

SMILES strings stand for the structures.

One may read the IC50 as the concentration needed to halve the response being measured. Turning to `O=C(O)[C@@H]1CN(CC#Cc2ccc(F)cc2)CCN1C(=O)C(c1ccccc1)c1ccccc1`, the IC50 amounted to 3.92 µM.
